According to ChEMBL document CHEMBL1134991, “Alpha(1)-adrenoceptor activation: a comparison of 4-(anilinomethyl)imidazoles and 4-(phenoxymethyl)imidazoles to related 2-imidazolines” (Bioorg Med Chem Lett, 2002):
Values belong to the compound of their own block, whether it stands above or below them.

What was measured:
[1] = molecular target: T1, Alpha-1D adrenergic receptor (Homo sapiens, UniProt P25100); test: Activation of human Alpha-1D adrenergic receptors expressed in rat-1 fibroblasts; format: functional
T1 sequence (P25100 whole entry): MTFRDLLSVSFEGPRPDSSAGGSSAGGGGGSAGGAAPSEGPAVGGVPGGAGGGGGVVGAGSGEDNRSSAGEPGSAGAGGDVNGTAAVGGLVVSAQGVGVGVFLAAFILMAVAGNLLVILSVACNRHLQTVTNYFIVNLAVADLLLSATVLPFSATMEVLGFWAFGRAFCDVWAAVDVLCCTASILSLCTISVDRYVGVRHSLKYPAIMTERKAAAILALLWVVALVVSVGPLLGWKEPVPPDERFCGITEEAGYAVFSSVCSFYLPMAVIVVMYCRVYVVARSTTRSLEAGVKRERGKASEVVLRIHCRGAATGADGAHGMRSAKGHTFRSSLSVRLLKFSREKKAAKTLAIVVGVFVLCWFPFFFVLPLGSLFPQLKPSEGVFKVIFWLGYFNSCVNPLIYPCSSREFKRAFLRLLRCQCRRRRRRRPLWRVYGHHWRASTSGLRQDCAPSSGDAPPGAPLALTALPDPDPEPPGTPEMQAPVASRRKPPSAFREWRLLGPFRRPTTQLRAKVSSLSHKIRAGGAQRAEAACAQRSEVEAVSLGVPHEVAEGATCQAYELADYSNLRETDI

[2] = molecular target: T2, Alpha-1B adrenergic receptor (Homo sapiens, UniProt P35368); test: Activation of human alpha-1B adrenergic receptors expressed in rat-1 fibroblasts; format: functional
T2 sequence (P35368 whole entry): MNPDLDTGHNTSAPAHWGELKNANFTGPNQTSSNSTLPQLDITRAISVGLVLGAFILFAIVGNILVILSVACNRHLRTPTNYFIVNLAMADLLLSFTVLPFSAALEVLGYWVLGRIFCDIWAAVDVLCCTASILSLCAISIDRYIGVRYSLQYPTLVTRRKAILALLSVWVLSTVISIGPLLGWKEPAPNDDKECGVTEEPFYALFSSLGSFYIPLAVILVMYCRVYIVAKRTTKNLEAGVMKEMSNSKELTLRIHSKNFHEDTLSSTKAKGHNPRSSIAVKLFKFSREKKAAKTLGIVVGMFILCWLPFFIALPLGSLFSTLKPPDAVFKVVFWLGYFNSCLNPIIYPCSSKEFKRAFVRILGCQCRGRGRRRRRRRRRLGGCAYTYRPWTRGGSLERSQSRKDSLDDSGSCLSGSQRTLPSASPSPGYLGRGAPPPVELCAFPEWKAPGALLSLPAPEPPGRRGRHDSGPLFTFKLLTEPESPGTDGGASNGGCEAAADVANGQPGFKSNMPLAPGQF

[3] = molecular target: T3, Alpha-1A adrenergic receptor (Homo sapiens, UniProt P35348); test: Activation of human alpha-1A adrenergic receptor expressed in rat-1 fibroblasts; format: functional
T3 sequence (P35348 whole entry): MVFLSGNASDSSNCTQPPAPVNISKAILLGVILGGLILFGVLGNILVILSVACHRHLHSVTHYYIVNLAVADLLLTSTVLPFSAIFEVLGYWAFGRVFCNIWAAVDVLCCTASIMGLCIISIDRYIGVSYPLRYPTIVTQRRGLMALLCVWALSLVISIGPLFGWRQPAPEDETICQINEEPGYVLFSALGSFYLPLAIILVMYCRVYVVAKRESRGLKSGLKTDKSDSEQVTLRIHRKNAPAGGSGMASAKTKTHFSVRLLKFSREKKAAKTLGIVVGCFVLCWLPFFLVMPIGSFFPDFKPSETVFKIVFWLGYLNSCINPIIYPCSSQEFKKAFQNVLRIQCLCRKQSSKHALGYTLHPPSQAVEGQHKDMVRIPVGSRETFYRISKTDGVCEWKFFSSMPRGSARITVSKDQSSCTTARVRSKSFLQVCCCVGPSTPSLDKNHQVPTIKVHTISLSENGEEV

[4] = molecular target: T4, Alpha-1A adrenergic receptor (Homo sapiens) (UniProt P35348); test: Activation of human alpha-1A adrenergic receptor expressed in rat-1 fibroblasts; expressed as a percent of the maximal effect of the phenylephrine; format: functional
T4 sequence (whole entry): T3 sequence (P35348 whole entry)

[5] = molecular target: T5, Alpha-1D adrenergic receptor (Homo sapiens) (UniProt P25100); test: Activation of human alpha-1D-adrenoceptor receptor expressed in rat-1 fibroblasts relative to phenylephrine; format: functional
T5 sequence (whole entry): T1 sequence (P25100 whole entry)

[6] = molecular target: T3, Alpha-1A adrenergic receptor; test: In vitro binding affinity against cloned human alpha-1A-adrenoceptor receptors expressed in rat-1 fibroblasts
[7] = molecular target: T2, Alpha-1B adrenergic receptor; test: In vitro binding affinity against cloned human alpha-1B-adrenoceptor receptors expressed in rat-1 fibroblasts
[8] = molecular target: T6, Alpha-1B adrenergic receptor (Homo sapiens) (UniProt P35368); test: Activation of human alpha-1B-adrenoceptor receptors expressed in rat-1 fibroblasts as percent maximal effect relative to phenylephrine; format: functional
T6 sequence (whole entry): T2 sequence (P35368 whole entry)

[9] = molecular target: T1, Alpha-1D adrenergic receptor; test: In vitro binding affinity against cloned human alpha-1D-adrenoceptor receptors expressed in rat-1 fibroblasts
[10] = molecular target: T7, Adrenergic receptor alpha-1 (Rattus norvegicus, UniProt P15823+P23944+P43140); test: Inhibition of binding of [3H]-prazosin at alpha1 adrenoceptors isolated from rat brain
T7 sequence (P15823 whole entry): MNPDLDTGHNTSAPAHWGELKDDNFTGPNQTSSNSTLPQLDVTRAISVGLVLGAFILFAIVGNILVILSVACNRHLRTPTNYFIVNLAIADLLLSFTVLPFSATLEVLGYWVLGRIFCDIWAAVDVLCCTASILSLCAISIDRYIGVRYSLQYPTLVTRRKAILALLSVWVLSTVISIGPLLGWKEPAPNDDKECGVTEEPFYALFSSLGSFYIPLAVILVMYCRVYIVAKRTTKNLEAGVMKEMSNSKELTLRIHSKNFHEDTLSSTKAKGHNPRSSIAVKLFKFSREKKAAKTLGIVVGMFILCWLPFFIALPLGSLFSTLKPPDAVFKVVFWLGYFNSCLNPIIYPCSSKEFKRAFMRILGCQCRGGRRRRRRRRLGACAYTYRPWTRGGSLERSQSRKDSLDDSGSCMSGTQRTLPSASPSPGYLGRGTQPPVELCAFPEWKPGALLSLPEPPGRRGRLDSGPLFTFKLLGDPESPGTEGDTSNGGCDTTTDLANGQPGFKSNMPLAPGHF
T7 sequence (P23944 whole entry): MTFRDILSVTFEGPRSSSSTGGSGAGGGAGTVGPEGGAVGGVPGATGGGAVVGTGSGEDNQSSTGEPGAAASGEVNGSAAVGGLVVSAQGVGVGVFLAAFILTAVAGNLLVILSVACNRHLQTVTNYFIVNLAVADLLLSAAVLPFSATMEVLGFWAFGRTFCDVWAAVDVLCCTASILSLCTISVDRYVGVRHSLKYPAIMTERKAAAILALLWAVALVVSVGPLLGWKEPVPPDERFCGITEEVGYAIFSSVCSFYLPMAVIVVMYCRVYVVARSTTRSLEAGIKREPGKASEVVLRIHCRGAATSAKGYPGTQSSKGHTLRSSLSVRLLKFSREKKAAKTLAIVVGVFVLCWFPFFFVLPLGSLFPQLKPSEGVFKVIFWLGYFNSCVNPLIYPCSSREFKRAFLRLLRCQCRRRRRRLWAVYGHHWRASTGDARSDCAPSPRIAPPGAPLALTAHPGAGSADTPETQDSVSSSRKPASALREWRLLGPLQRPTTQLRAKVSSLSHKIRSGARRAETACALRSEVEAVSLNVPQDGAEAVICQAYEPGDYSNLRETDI
T7 sequence (P43140 whole entry): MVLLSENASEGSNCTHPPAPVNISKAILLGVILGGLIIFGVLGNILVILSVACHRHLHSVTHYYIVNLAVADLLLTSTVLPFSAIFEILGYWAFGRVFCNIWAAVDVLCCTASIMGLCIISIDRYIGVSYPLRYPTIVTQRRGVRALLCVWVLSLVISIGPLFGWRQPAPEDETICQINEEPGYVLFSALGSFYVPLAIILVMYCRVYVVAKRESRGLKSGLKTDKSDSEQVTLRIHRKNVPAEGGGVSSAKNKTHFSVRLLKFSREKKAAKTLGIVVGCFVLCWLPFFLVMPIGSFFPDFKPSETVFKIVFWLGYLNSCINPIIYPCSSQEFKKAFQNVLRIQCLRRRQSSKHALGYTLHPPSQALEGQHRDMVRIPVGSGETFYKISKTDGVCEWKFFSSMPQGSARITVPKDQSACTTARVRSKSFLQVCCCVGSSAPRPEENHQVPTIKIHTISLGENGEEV

[11] = Acid dissociation constant for the compound was determined; format: ADME

Structure (SMILES): c1ccc(-c2ccno2)c(OCc2c[nH]cn2)c1
EC50 [1]: > 100000 nM
EC50 [2]: > 100000 nM
EC50 [3]: 158 nM
Max [4]: 91%

Structure (SMILES): CS(=O)(=O)c1ccccc1NCC1=NCCN1
EC50 [1]: > 100000 nM
EC50 [2]: > 100000 nM
EC50 [3]: 50.1 nM
Max [4]: 105%

Structure (SMILES): Cc1ccc(C)c(OCc2c[nH]cn2)c1
IC50 [10]: 102 nM

Structure (SMILES): COc1ccc(S(C)(=O)=O)c(NCC2=NCCN2)c1
EC50 [1]: > 100000 nM
EC50 [2]: > 100000 nM
EC50 [3]: 12.6 nM

Structure (SMILES): c1ccc(-c2ccccc2OCC2=NCCN2)cc1
IC50 [6]: 66.1 nM
IC50 [7]: 2400 nM
IC50 [9]: 550 nM
Max [4]: 96%

Structure (SMILES): c1ccc(-c2ccccc2OCc2c[nH]cn2)cc1
EC50 [1]: > 100000 nM
EC50 [2]: > 100000 nM
IC50 [6]: 302 nM
IC50 [7]: 5890 nM
EC50 [3]: 15.8 nM
IC50 [9]: 933 nM
Max [4]: 102%

Structure (SMILES): c1ccc(-c2ccno2)c(OCC2=NCCN2)c1
Max [5]: 34%
EC50 [1]: 100 nM
EC50 [2]: 100 nM
EC50 [3]: 6.31 nM
Max [8]: 81%
Max [4]: 91%

Structure (SMILES): CCCNC(=O)c1ccccc1NCC1=NCCN1
IC50 [6]: 282 nM
IC50 [7]: 1700 nM
IC50 [9]: 513 nM

Structure (SMILES): c1ccc(-c2ccccc2OCC2=NCCN2)nc1
Max [4]: 104%

Structure (SMILES): CSc1ccccc1NCc1cnc[nH]1
pKa [11]: 6.5
EC50 [1]: 20 nM
EC50 [2]: 25.1 nM
IC50 [6]: 170 nM
IC50 [7]: 891 nM
EC50 [3]: 10 nM
IC50 [9]: 57.5 nM

Structure (SMILES): c1ccc(N2CCCCC2)c(NCC2=NCCN2)c1
EC50 [1]: > 5010 nM
EC50 [2]: > 5010 nM
EC50 [3]: 12.6 nM
Max [4]: 114%

Structure (SMILES): Clc1cccc(Cl)c1NCc1c[nH]cn1
IC50 [10]: 263 nM

Structure (SMILES): Oc1ccc2cccc(NCC3=NCCN3)c2c1
Max [5]: 53%
EC50 [1]: 31.6 nM
EC50 [2]: > 5010 nM
EC50 [3]: 6.31 nM
Max [4]: 110%

Structure (SMILES): c1ccc(-c2cnco2)c(NCC2=NCCN2)c1
EC50 [1]: > 5010 nM
EC50 [2]: > 5010 nM
EC50 [3]: 20 nM
Max [4]: 107%

Next, values leading:

EC50 [1]: > 5010 nM
EC50 [2]: > 5010 nM
EC50 [3]: 63.1 nM
Max [4]: 114%
Structure (SMILES): CCN(CC)C(=O)c1ccccc1NCc1c[nH]cn1

Max [5]: 51%
EC50 [1]: > 251 nM
EC50 [2]: > 5010 nM
EC50 [3]: 50.1 nM
Max [4]: 120%
Structure (SMILES): c1ccc(-c2cnco2)c(NCc2c[nH]cn2)c1

Max [5]: 77%
EC50 [1]: 79.4 nM
EC50 [2]: 316 nM
IC50 [6]: 77.6 nM
IC50 [7]: 3020 nM
EC50 [3]: 3.98 nM
Max [8]: 89%
IC50 [9]: 871 nM
Max [4]: 100%
Structure (SMILES): CCCNC(=O)c1ccccc1NCc1c[nH]cn1

EC50 [1]: > 5010 nM
EC50 [2]: > 5010 nM
EC50 [3]: 63.1 nM
Max [4]: 100%
Structure (SMILES): Oc1ccc2cccc(NCc3c[nH]cn3)c2c1

EC50 [1]: > 100000 nM
EC50 [2]: > 100000 nM
EC50 [3]: 126 nM
Max [4]: 97%
Structure (SMILES): CS(=O)(=O)c1ccccc1NCc1c[nH]cn1

Max [5]: 36%
Max [8]: 78%
Max [4]: 94%
Structure (SMILES): CSc1ccccc1NCc1c[nH]cn1

EC50 [1]: > 5010 nM
EC50 [2]: > 5010 nM
EC50 [3]: 50.1 nM
Max [4]: 95%
Structure (SMILES): c1ccc(N2CCCCC2)c(NCc2c[nH]cn2)c1

EC50 [1]: > 100000 nM
EC50 [2]: > 100000 nM
IC50 [6]: > 30200 nM
IC50 [7]: > 30200 nM
EC50 [3]: > 100000 nM
IC50 [9]: > 30200 nM
Structure (SMILES): CCN(CC)C(=O)c1ccccc1OCc1c[nH]cn1

EC50 [1]: > 100000 nM
EC50 [2]: > 100000 nM
IC50 [6]: > 30200 nM
IC50 [7]: > 30200 nM
EC50 [3]: > 100000 nM
IC50 [9]: > 30200 nM
Structure (SMILES): CCN(CC)C(=O)c1ccccc1OCC1=NCCN1
